According to publication PMC5266694, “Identification of Key Residues in the NisK Sensor Region for Nisin Biosynthesis Regulation” (Frontiers in Microbiology, 2017):
Each block holds one molecule with its values, some of them ahead of it. Where no end group is shown, it is not given here.

Assays:
NisK mutant M66A = assay: Far-Western blotting, b-nisin binding to NisK mutant; set-up: species or system Lactococcus lactis; conditions: membrane protein of strain M66A; biotin-labelled nisin, HRP-streptavidin
Description: (§1) Lactococcus lactis MG1363 RKNlacZ mutant cells were harvested from 500 ml broth when OD600 reached 0.6–0.7, washed with PBS buffer (pH 7.4) once and resuspended in 20 ml PBS buffer. After lysing by sonication, cells were centrifuged at 6,000 g for 1 h to remove intact cells. The supernatant was ultra-centrifuged at 120,000 g for 2 h to separate soluble (cytoplasmic fraction) and insoluble (cell membrane fraction) proteins.
(§2) Nisin was labeled by biotin according to the method shown by ([Koteva et al., 2010]) in Beijing Biosynthesis Biotechnology Co., Ltd.. Briefly, nisin peptide was resolved by NaHCO3 (0.1 M, pH = 9.0) and incubated with biotin. Nisin labeled with biotin was purified by High Performance Liquid Chromatography and was named as b-nisin. The insoluble (cell membrane fraction) proteins were separated from L. lactis MG1363 RKNlacZ mutant cells. Far-Western blotting assays were performed using a modified protocol as described by ([Wu Y. et al., 2007]). Briefly, the insoluble proteins were firstly separated by SDS-PAGE, and transferred to a PVDF membrane as in a standard Western blotting. The proteins in the membrane were then denatured and renatured. The membrane is then blocked and probed with b-nisin. The horseradish peroxidase (HRP) conjugated streptavidin was used as the secondary antibody, and the lanes indicating b-nisin binding to NisK or NisK mutants were detected by photographic film.
(§3) In order to clarify whether the important residues in NisK affected the interaction between nisin and NisK, the membrane proteins from L. lactis MG1363 RKNlacZ strain and the mutant strain M66A, D72A, Y113A, F133A, 69–73A5, and 74–76A3 were extracted. Nisin was labeled by biotin, and the modified product was named by b-nisin. The interaction between b-nisin and membrane proteins was studied by far-Western blotting assay.

NisK mutant Y113A = assay: as above; set-up: species or system Lactococcus lactis; conditions: membrane protein of strain Y113A; biotin-labelled nisin, HRP-streptavidin
Description: as §1, §2, §3

NisK mutant 74–76A3 = assay: as above; set-up: species or system Lactococcus lactis; conditions: membrane protein of strain 74–76A3; biotin-labelled nisin, HRP-streptavidin
Description: as §1, §2, §3

NisK mutant F133A = assay: as above; set-up: species or system Lactococcus lactis; conditions: membrane protein of strain F133A; biotin-labelled nisin, HRP-streptavidin
Description: as §1, §2, §3

NisK mutant 69–73A5 = assay: as above; set-up: species or system Lactococcus lactis; conditions: membrane protein of strain 69–73A5; biotin-labelled nisin, HRP-streptavidin
Description: as §1, §2, §3

NisK mutant D72A = assay: as above; set-up: species or system Lactococcus lactis; conditions: membrane protein of strain D72A; biotin-labelled nisin, HRP-streptavidin
Description: as §1, §2, §3

NisK = assay: Far-Western blotting, b-nisin binding to NisK; set-up: species or system Lactococcus lactis; conditions: membrane proteins of L. lactis MG1363 RKNlacZ, SDS-PAGE, PVDF, denatured and renatured; biotin-labelled nisin, HRP-streptavidin detection
Description: as §1
as §2, with “The membrane is then blocked and probed with b-nisin.” left out, “film. […]” for “film.”

[1] = target: T1, His6-NisKex (NisK extracellular region) (Lactococcus lactis CV56, UniProt P42707 36-144); assay: SPR; BIACORE3000; His6-NisKex immobilised on a CM5 chip by amide coupling to 1000 RU; nisin in HBS-T as analyte, 260 to 8.125 μM in twofold dilution, 30 μl/min, 25°C; 1:1 (Langmuir) model with local fitted Rmax; conditions: both partners purified
T1 construct: source: E. coli (pET28a), purified
T1 sequence (looked up): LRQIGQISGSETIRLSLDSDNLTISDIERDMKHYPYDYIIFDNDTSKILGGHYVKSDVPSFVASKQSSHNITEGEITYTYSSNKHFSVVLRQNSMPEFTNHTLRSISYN

Molecule: b-nisin: Nisin labeled with biotin, purified by High Performance Liquid Chromatography (ITSISLCTPGCKTGALMGCNMKTATCHCSIHVSK; ends and bridges not checked; also: labelled with biotin, site not given here)
- binding to NisK mutant on far-Western blot (NisK mutant M66A): did not show b-nisin binding bands
- binding to NisK mutant on far-Western blot (NisK mutant Y113A): did not show b-nisin binding bands
- binding to NisK mutant on far-Western blot (NisK mutant 74–76A3): did not show b-nisin binding bands
- binding to NisK mutant on far-Western blot (NisK mutant F133A): did not show b-nisin binding bands
- binding to NisK mutant on far-Western blot (NisK mutant 69–73A5): did not show b-nisin binding bands
- binding to NisK mutant on far-Western blot (NisK mutant D72A): did not show b-nisin binding bands
- binding to NisK on far-Western blot (NisK): labeled a membrane protein of about 51.5 kDa

- koff [1]: 1 s⁻¹
- kon [1]: 65.2 M⁻¹ s⁻¹
B1: nisin (peptide, UniProt P13068 24-57, looked up)
peptide: ITSISLCTPGCKTGALMGCNMKTATCHCSIHVSK
notes: also called signal peptide nisin; nisin A; source: purified from commercial nisin product (Yinxiang, Zhejiang, China)
